Laboratory results from patent US9187464B2, “TRPV4 antagonists” (GlaxoSmithKline Intellectual Property (No. 2) Limited, priority 2011, dated 2015).
pIC50: −log10 of the molar value.

Biological target: T1, human TRPV4 (Homo sapiens, UniProt Q9HBA0)
T1 construct: expressed in transfected cells; host or cells: HEK-293-MSR-II cells transduced with 1% BacMam virus
Assay: Ligand-gated assay (Fluo4 calcium, FLIPR; inhibition of agonist-induced activation)
Type: cell-based
Settings: HEK-293-MSR-II cells transduced with BacMam human TRPV4; agonist at EC80
Summary of the method: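 Agonist (EC80) response read on FLIPR as Fluo-4 (2 uM) fluorescence after 10-min room-temperature compound exposure in HBSS/HEPES pH 7.4 with 0.01% Chaps. Cells: HEK-293-MSR-II expressing human TRPV4 via BacMam; output is IC50 of inhibition.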

T1 sequence (Q9HBA0 whole entry): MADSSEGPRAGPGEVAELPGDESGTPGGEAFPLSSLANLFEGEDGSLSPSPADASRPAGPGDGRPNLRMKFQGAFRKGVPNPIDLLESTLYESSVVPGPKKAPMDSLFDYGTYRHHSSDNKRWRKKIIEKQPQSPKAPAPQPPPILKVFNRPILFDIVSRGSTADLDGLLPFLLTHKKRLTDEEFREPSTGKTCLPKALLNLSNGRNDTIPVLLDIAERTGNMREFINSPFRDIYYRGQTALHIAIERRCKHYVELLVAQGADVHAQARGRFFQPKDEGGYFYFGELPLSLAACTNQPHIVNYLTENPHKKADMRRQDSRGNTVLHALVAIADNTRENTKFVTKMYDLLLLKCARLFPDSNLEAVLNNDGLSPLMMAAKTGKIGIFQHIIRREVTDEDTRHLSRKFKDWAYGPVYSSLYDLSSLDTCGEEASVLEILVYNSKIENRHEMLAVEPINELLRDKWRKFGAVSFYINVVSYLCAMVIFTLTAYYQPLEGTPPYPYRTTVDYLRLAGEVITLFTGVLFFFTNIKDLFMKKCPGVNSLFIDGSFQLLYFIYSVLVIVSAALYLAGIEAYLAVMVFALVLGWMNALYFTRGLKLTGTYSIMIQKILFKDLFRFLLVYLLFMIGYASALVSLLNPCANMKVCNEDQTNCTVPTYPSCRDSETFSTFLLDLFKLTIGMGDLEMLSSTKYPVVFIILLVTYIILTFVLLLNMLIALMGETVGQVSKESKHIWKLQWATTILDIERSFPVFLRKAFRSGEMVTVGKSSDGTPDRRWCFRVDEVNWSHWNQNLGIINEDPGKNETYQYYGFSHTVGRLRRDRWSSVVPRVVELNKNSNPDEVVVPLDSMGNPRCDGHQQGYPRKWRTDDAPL

SMILES	pIC50
Cc1ccc(N2C[C@@]3(CCC[C@](C)(Cn4cnc5ccc(C#N)cc54)C3)OC2=O)cn1 [Example 140, 1-(((5S,7S)-7-methyl-3-(6-methylpyridin-3-yl)-2-oxo-1-oxa-3-azaspiro[4.5]decan-7-yl)methyl)-1H-benzo[d]imidazole-6-carbonitrile]	6.30 to 7.30
N#Cc1ccc2ncn(C[C@H]3CCC[C@]4(C3)CN(Cc3nc(-c5ccccc5)cs3)C(=O)O4)c2c1 [Example 66, 1-({(5S,7S)-2-oxo-3-[(4-phenyl-1,3-thiazol-2-yl)methyl]-1-oxa-3-azaspiro[4.5]dec-7-yl}methyl)-1H-benzimidazole-6-carbonitrile]	7.30 to 8.00
Cc1noc(N2C[C@@]3(CCC[C@H](Cn4cnc5ccc(C#N)cc54)C3)OC2=O)c1C [Example 58, 1-(((5S,7S)-3-(3,4-dimethylisoxazol-5-yl)-2-oxo-1-oxa-3-azaspiro[4.5]decan-7-yl)methyl)-1H-benzo[d]imidazole-6-carbonitrile]	6.30 to 7.30
CC(C)OCc1noc(C(C)(C)CN2C[C@@]3(CCC[C@H](Cn4cnc5ccc(C#N)cc54)C3)OC2=O)n1 [Example 83, 1-({(5S,7S)-3-[2-methyl-2-(3-{[(1-methylethyl)oxy]methyl}-1,2,4-oxadiazol-5-yl)propyl]-2-oxo-1-oxa-3-azaspiro[4.5]dec-7-yl}methyl)-1H-benzimidazole-6-carbonitrile]	8.00 to 10.00
C=C(C)c1cc(N2C[C@@]3(CCC[C@](C)(Cn4cnc5ccc(C#N)cc54)C3)OC2=O)on1 [Example 56, 1-(((5S,7S)-7-methyl-2-oxo-3-(3-(prop-1-en-2-yl)isoxazol-5-yl)-1-oxa-3-azaspiro[4.5]decan-7-yl)methyl)-1H-benzo[d]imidazole-6-carbonitrile]	7.30 to 8.00
CC(C)(CO)c1cc(N2C[C@@]3(CCC[C@](C)(Cn4cnc5ccc(C#N)cc54)C3)OC2=O)on1 [Example 21, 1-(((5S,7S)-3-(3-(1-Hydroxy-2-methylpropan-2-yl)isoxazol-5-yl)-7-methyl-2-oxo-1-oxa-3-azaspiro[4.5]decan-7-yl)methyl)-1H-benzo[d]imidazole-6-carbonitrile]	6.30 to 7.30
N#Cc1ccc2ncn(C[C@H]3CCC[C@]4(C3)CN(CC3CCN(c5ccccn5)C3)C(=O)O4)c2c1 (stereo partly drawn) [Example 86, 1-[((5S,7S)-2-oxo-3-{[1-(2-pyridinyl)-3-pyrrolidinyl]methyl}-1-oxa-3-azaspiro[4.5]dec-7-yl)methyl]-1H-benzimidazole-6-carbonitrile]	6.30 to 7.30
CCOc1cc(C)c(N2C[C@@]3(CCC[C@](C)(Cn4cnc5ccc(C#N)cc54)C3)OC2=O)nn1 [Example 24, 1-(((5S,7S)-3-(6-Ethoxy-4-methylpyridazin-3-yl)-7-methyl-2-oxo-1-oxa-3-azaspiro[4.5]decan-7-yl)methyl)-1H-benzo[d]imidazole-6-carbonitrile]	8.00 to 10.00
CC(C)(C)c1coc(N2C[C@@]3(CCC[C@](C)(Cn4cnc5ccc(C#N)cc54)C3)OC2=O)n1 [Example 42, 1-(((5S,7S)-3-(4-(tert-butyl)oxazol-2-yl)-7-methyl-2-oxo-1-oxa-3-azaspiro[4.5]decan-7-yl)methyl)-1H-benzo[d]imidazole-6-carbonitrile]	7.30 to 8.00
COc1cc(OC)c(N2C[C@@]3(CCC[C@](C)(Cn4cnc5ccc(C#N)cc54)C3)OC2=O)cn1 [Example 22, 1-(((5S,7S)-3-(4,6-Dimethoxyipyridin-3-yl)-7-methyl-2-oxo-1-oxa-3-azasbiro[4.5]decan-7-yl)methyl)-1H-benzo[d]imidazole-6-carbonitrile]	8.00 to 10.00
CC(C)c1cc(N2C[C@@]3(CCC[C@](C)(Cn4cnc5ccc(C#N)cc54)C3)OC2=O)on1 [Example 30, 1-({(5S,7S)-7-methyl-3-[3-(1-methylethyl)-5-isoxazolyl]-2-oxo-1-oxa-3-azaspiro[4.5]dec-7-yl}methyl)-1H-benzimidazole-6-carbonitrile]	7.30 to 8.00
C[C@]1(Cn2cnc3ccc(C#N)cc32)CCC[C@@]2(CN(Cc3cn(-c4ccccc4)nn3)C(=O)O2)C1 [Example 8, 1-({(5S,7S)-7-Methyl-2-oxo-3-[(1-phenyl-1H-1,2,3-triazol-4-yl)methyl]-1-oxa-3-azaspiro[4.5]dec-7-yl}methyl)-1H-benzimidazole-6-carbonitrile]	8.00 to 10.00
Cn1cc(-c2ccnc(CN3C[C@@]4(CCC[C@](C)(Cn5cnc6ccc(C#N)cc65)C4)OC3=O)c2)cn1 [Example 160, 1-(((5S,7S)-7-methyl-3-((4-(1-methyl-1H-pyrazol-4-yl)pyridin-2-yl)methyl)-2-oxo-1-oxa-3-azaspiro[4.5]decan-7-yl)methyl)-1H-benzo[d]imidazole-6-carbonitrile]	8.00 to 10.00
CC(C)(C)OC(=O)OCC(C)(C)c1cc(N2C[C@@]3(CCC[C@](C)(Cn4cnc5ccc(C#N)cc54)C3)OC2=O)on1 [Example 20, Tert-butyl (2-(5-((5S,7S)-7-((6-cyano-1H-benzo[d]imidazol-1-yl)methyl)-7-methyl-2-oxo-1-oxa-3-azaspiro[4.5]decan-3-yl)isoxazol-3-yl)-2-methylpropyl) carbonate]	8.00 to 10.00
CC(C)(C)n1cc(N2C[C@@]3(CCC[C@](C)(Cn4cnc5ccc(C#N)cc54)C3)OC2=O)nn1 [Example 52, 1-(((5S,7S)-3-(1-(tert-butyl)-1H-1,2,3-triazol-4-yl)-7-methyl-2-oxo-1-oxa-3-azaspiro[4.5]decan-7-yl)methyl)-1H-benzo[d]imidazole-6-carbonitrile]	6.30 to 7.30
Cc1noc(C(C)(C)CN2C[C@@]3(CCC[C@H](Cn4cnc5ccc(C#N)cc54)C3)OC2=O)n1 [Example 74, 1-({(5S,7S)-3-[2-methyl-2-(3-methyl-1,2,4-oxadiazol-5-yl)propyl]-2-oxo-1-oxa-3-azaspiro[4.5]dec-7-yl}methyl)-1H-benzimidazole-6-carbonitrile]	7.30 to 8.00
N#Cc1ccc2ncn(C[C@H]3CCC[C@]4(C3)CN(Cc3cn(-c5cncc(C(F)(F)F)c5)nn3)C(=O)O4)c2c1 [Example 9, 1-{[(5S,7S)-2-Oxo-3-({1-[5-(trifluoromethyl)-3-pyridinyl]-1H-1,2,3-triazol-4-yl}methyl)-1-oxa-3-azaspiro[4.5]dec-7-yl]methyl}-1H-benzimidazole-6-carbonitrile]	8.00 to 10.00
Cc1ccncc1N1C[C@@]2(CCC[C@](C)(Cn3cnc4ccc(C#N)cc43)C2)OC1=O [Example 146, 1-(((5S,7S)-7-methyl-3-(4-methylpyridin-3-yl)-2-oxo-1-oxa-3-azaspiro[4.5]decan-7-yl)methyl)-1H-benzo[d]imidazole-6-carbonitrile]	8.00 to 10.00
CCOc1cnc(CN2C[C@@]3(CCC[C@](C)(Cn4cnc5ccc(C#N)cc54)C3)OC2=O)cn1 [Example 155]	8.00 to 10.00
COc1ccc(N2C[C@@]3(CCC[C@](C)(Cn4cnc5ccc(C#N)cc54)C3)OC2=O)nc1 [Example 135, 1-({(5S,7S)-7-methyl-3-[5-(methyloxy)-2-pyridinyl]-2-oxo-1-oxa-3-azaspiro[4.5]dec-7-yl}methyl)-1H-benzimidazole-6-carbonitrile]	6.30 to 7.30
CC(C)c1ccc(N2C[C@@]3(CCC[C@H](Cn4cnc5ccc(C#N)cc54)C3)OC2=O)cn1 [Example 142, 1-({(5S,7S)-3-[6-(1-methylethyl)-3-pyridinyl]-2-oxo-1-oxa-3-azaspiro[4.5]dec-7-yl}methyl)-1H-benzimidazole-6-carbonitrile]	7.30 to 8.00
N#Cc1cccc(-n2cc(CN3C[C@@]4(CCC[C@H](Cn5cnc6ccc(C#N)cc65)C4)OC3=O)nn2)c1 [Example 92, 1-[((5S,7S)-3-{[1-(3-cyanophenyl)-1H-1,2,3-triazol-4-yl]methyl}-2-oxo-1-oxa-3-azaspiro[4.5]dec-7-yl)methyl]-1H-benzimidazole-6-carbonitrile]	7.30 to 8.00
C[C@]1(Cn2cnc3ccc(C#N)cc32)CCC[C@@]2(CN(c3cc(C4CCC4)no3)C(=O)O2)C1 [Example 40, 1-(((5S,7S)-3-(3-cyclobutylisoxazol-5-yl)-7-methyl-2-oxo-1-oxa-3-azaspiro[4.5]decan-7-yl)methyl)-1H-benzo[d]imidazole-6-carbonitrile]	7.30 to 8.00
CC(C)(C#N)c1cc(N2C[C@@]3(CCC[C@](C)(Cn4cnc5ccc(C#N)cc54)C3)OC2=O)on1 [Example 2]	8.00 to 10.00
COc1cc(C)cnc1N1C[C@@]2(CCC[C@](C)(Cn3cnc4ccc(C#N)cc43)C2)OC1=O [Example 127, 1-(((5S,7S)-3-(3-methoxy-5-methylpyridin-2-yl)-7-methyl-2-oxo-1-oxa-3-azaspiro[4.5]decan-7-yl)methyl)-1H-benzo[d]imidazole-6-carbonitrile]	7.30 to 8.00
COc1cnc(N2C[C@@]3(CCC[C@](C)(Cn4cnc5ccc(C#N)cc54)C3)OC2=O)cn1 [Example 17, 1-(((7S)-3-(5-Methoxypyrazin-2-yl)-7-methyl-2-oxo-1-oxa-3-azaspiro[4.5]decan-7-yl)methyl)-1H-benzo[d]imidazole-6-carbonitrile]	7.30 to 8.00
COc1ccc(N2C[C@@]3(CCC[C@](C)(Cn4cnc5ccc(C#N)cc54)C3)OC2=O)c(OC)n1 [Example 110, 1-({(5S,7S)-3-[2,6-bis(methyloxy)-3-pyridinyl]-7-methyl-2-oxo-1-oxa-3-azaspiro[4.5]dec-7-yl}methyl)-1H-benzimidazole-6-carbonitrile]	8.00 to 10.00
C[C@]1(Cn2cnc3ccc(C#N)cc32)CCC[C@@]2(CN(c3ccc(C(F)(F)F)cn3)C(=O)O2)C1 [Example 11, 1-({(5S,7S)-7-Methyl-2-oxo-3-[5-(trifluoromethyl)-2-pyridinyl]-1-oxa-3-azaspiro[4.5]dec-7-yl}methyl)-1H-benzimidazole-6-carbonitrile]	7.30 to 8.00
Cc1nc(C(F)(F)F)ncc1N1C[C@@]2(CCC[C@H](Cn3cnc4ccc(C#N)cc43)C2)OC1=O [Example 124, 1-(((5S,7S)-3-(4-methyl-2-(trifluoromethyl)pyrimidin-5-yl)-2-oxo-1-oxa-3-azaspiro[4.5]decan-7-yl)methyl)-1H-benzo[d]imidazole-6-carbonitrile]	7.30 to 8.00
